In patent US20250171459A1, “2-METHYL-4',5'-DIHYDROSPIRO[PIPERIDINE-4,7'-THIENO[2,3-C]PYRAN] DERIVATIVES AS INHIBITORS OF APOL1 AND METHODS OF USING SAME” (Vertex Pharmaceuticals Incorporated, priority 2022, published 2025):

molecular target: T1, APOL1 (Homo sapiens, UniProt O14791); experiment: MultiTox-Fluor Multiplex Cytotoxicity Assay in tet-inducible APOL1 T-REx-HEK293 cells (cell rescue, ratio of dead to live cells); assay type: cell-based; conditions: tet-inducible transgenic APOL1 T-REx-HEK293 cell lines, 50 ng/mL tet, 24 hours; read-out: IP50 (i.e., IC50 for cell proliferation)
T1 sequence (O14791 1-398 S342G/I384M): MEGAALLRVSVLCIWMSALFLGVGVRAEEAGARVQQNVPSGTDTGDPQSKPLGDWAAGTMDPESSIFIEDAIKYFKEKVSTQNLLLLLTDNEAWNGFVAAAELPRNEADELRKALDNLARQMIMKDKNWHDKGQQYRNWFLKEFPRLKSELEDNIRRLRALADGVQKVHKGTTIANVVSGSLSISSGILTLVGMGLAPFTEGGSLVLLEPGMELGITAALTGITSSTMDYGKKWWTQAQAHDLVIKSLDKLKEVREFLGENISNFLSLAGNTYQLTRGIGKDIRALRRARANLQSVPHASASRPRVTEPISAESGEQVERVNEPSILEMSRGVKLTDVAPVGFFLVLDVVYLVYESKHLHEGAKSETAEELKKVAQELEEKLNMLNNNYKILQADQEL
Summary of the method: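 T-REx-HEK293 cells with tet-inducible APOL1 were treated with compound (10 μM top, 10-point 3-fold dilution, duplicate) plus 50 ng/mL tetracycline for 24 h at 37° C, in DMEM with 2% tet-free FBS. MultiTox-Fluor protease signals gave a dead/live ratio, normalized to no tet (100% viability) and tet alone (0%).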

Row | Structure (SMILES) | IC50 [nM]
1 | C[C@H]1C[C@@]2(CCN1Cc1cnn(CC3CC4(CC4)C(=O)O3)c1)OCCc1c2sc(C(F)(F)F)c1CO (stereo partly shown) [Compound 981] | < 100
2 | C[C@H]1C[C@@]2(CCN1Cc1cnn(CS(=O)(=O)N(C)C)c1)OCCc1c2sc(C(F)(F)F)c1CO [Compound 924] | < 100
3 | CCc1cc2c(s1)CCO[C@@]21CCN(Cc2cn(C3CCCN(C(C)=O)C3)nn2)[C@@H](C)C1 (stereo partly shown) [Compound 61] | 100 to 500
4 | CCc1cc2c(s1)CCO[C@@]21CCN(C[C@H]2C[C@@H](NC(=O)c3cc(C)no3)C2)[C@@H](C)C1 [Compound 304] | < 100
5 | CCc1cc2c(s1)CCO[C@@]21CCN(C[C@H]2C[C@@H](NS(=O)(=O)CC(=O)OC)C2)[C@@H](C)C1 [Compound 392] | 500 to 1000
6 | CCc1cc2c(s1)CCO[C@@]21CCN(CCC(F)(F)F)[C@@H](C)C1 [Compound 275] | 500 to 1000
7 | C[C@H]1C[C@@]2(CCN1Cc1cnn(CCO)c1)OC[C@@H](O)c1cc(C(F)(F)F)sc12 [Compound 885] | < 100
8 | CCc1cc2c(s1)CCO[C@@]21CCN(CC2CN(S(=O)(=O)CCO)C2)[C@@H](C)C1 [Compound 492] | 100 to 500
9 | CCc1cc2c(s1)CCO[C@@]21CCN(C[C@H]2C[C@@H](NC(=O)CC3(O)CCCCC3)C2)[C@@H](C)C1 [Compound 303] | < 100
10 | CCc1cc2c(s1)CCO[C@@]21CCN(CC2CN(C(=O)C3(O)CCOCC3)C2)[C@@H](C)C1 [Compound 437] | < 100
11 | C[C@H]1C[C@@]2(CCN1Cc1cc(F)cc(F)c1O)OC[C@H](O)c1cc(Cl)sc12 [Compound 774] | 500 to 1000
12 | CCc1cc2c(s1)CCO[C@@]21CCN(Cc2cn(CC3(C(O)C(C)C)CC3)nn2)[C@@H](C)C1 (stereo partly shown) [Compound 74] | 100 to 500
13 | CCc1cc2c(s1)CCO[C@@]21CCN(CC(O)c2ccc(F)c(F)c2)[C@@H](C)C1 (stereo partly shown) [Compound 253] | 100 to 500
14 | CCc1cc2c(s1)CCOC21CCN(Cc2cnc(N[C@H]3CC[C@H](O)CC3)nc2)CC1 [Compound 1073, (1r,4r)-4-((5-((2′-ethyl-6′,7′-dihydrospiro[piperidine-4,4′-thieno[3,2-c]pyran]-1-yl)methyl)pyrimidin-2-yl)amino)cyclohexan-1-ol] | < 100
15 | CCc1cc2c(s1)CCOC21CCN(Cc2cnc(NC(=O)COCCOC)s2)CC1 [Compound 1132] | 100 to 500
16 | CCc1cc2c(s1)CCO[C@@]21CCN(CC2CNC2)[C@@H](C)C1 [Compound 421, (2′S,4R)-1′-(azetidin-3-ylmethyl)-2-ethyl-2′-methyl-spiro[6,7-dihydrothieno[3,2-c]pyran-4,4′-piperidine]] | 500 to 1000
17 | C[C@H]1C[C@@]2(CCN1CCN1CCCC1=O)OCCc1cc(CC(F)F)sc12 [Compound 623] | 500 to 1000
18 | C[C@H]1C[C@@]2(CCN1Cc1cnn(CCS(C)(=O)=O)c1)OCCc1cc(CO)sc12 [Compound 1016, [(2′S,7R)-2′-methyl-1′-[[1-(2-methylsulfonylethyl)pyrazol-4-yl]methyl]spiro[4,5-dihydrothieno[2,3-c]pyran-7,4′-piperidine]-2-yl]methanol] | 100 to 500
19 | C[C@H]1C[C@@]2(CCN1Cc1cnn(CCS(C)(=O)=O)c1)OCCc1cc(C#N)sc12 [Compound 1035, (2′S,7R)-2′-methyl-1′-[[1-(2-methylsulfonylethyl)pyrazol-4-yl]methyl]spiro[4,5-dihydrothieno[2,3-c]pyran-7,4′-piperidine]-2-carbonitrile] | < 100
20 | CCc1cc2c(s1)CCO[C@@]21CCN(Cc2cn([C@H]3C[C@@](C)(O)C3)nn2)[C@@H](C)C1 [Compound 132] | 100 to 500
21 | C[C@H]1C[C@@]2(CCN1Cc1cnn(Cc3cnccn3)c1)OCCc1c2sc(C(F)(F)F)c1CO [Compound 902] | < 100
22 | CCc1cc2c(s1)CCOC21CCN(Cc2cn(C(C)C(=O)NCCC(F)(F)F)nn2)CC1 (stereo not shown) [Compound 1121] | 500 to 1000
23 | C[C@H]1C[C@@]2(CCN1Cc1cn(CCS(C)(=O)=O)nn1)OCCc1cc(CO)sc12 [Compound 1019, [(2′S, 7R)-2′-methyl-1′-[[1-(2-methylsulfonylethyl)triazol-4-yl]methyl]spiro[4,5-dihydrothieno[2,3-c]pyran-7,4′-piperidine]-2-yl]methanol] | 500 to 1000
24 | CCc1cc2c(s1)CCO[C@@]21CCN(CC)[C@@H](C)C1 [Compound 289] | 100 to 500
25 | C[C@H]1C[C@@]2(CCN1Cc1cnn(CC3CCNC(=O)C3)c1)OCCc1c2sc(C(F)(F)F)c1CO (stereo partly shown) [Compound 917] | < 100
26 | C[C@H]1C[C@@]2(CCN1C1COC1)OCCc1cc(CC(F)F)sc12 [Compound 575] | 500 to 1000
27 | CCc1cc2c(s1)CCO[C@@]21CCN(Cc2cn(CC3(COC)CCOCC3)nn2)[C@@H](C)C1 [Compound 94] | 100 to 500
28 | COc1cc(CN2CC[C@]3(C[C@@H]2C)OCCc2cc(Cl)sc23)ccc1OCC(N)=O [Compound 663] | < 100

Row | Structure (SMILES) | IC50 [nM]
29 | CCc1ccc(S(=O)(=O)N[C@H]2C[C@@H](CN3CC[C@]4(C[C@@H]3C)OCCc3sc(CC)cc34)C2)s1 [Compound 403] | < 100
30 | C[C@H]1C[C@@]2(CCN1CCC(C)(C)O)OCCc1cc(CC(F)F)sc12 [Compound 620] | 100 to 500
31 | C[C@H]1C[C@@]2(CCN1Cc1cnn(CC(C)(O)C(=O)NC3CC3)c1)OCCc1c2sc(C(F)(F)F)c1CO (stereo partly drawn) [Compound 991, N-cyclopropyl-2-hydroxy-3-[4-[[(2′S, 7R)-3-(hydroxymethyl)-2′-methyl-2-(trifluoromethyl)spiro[4,5-dihydrothieno[2,3-c]pyran-7,4′-piperidine]-1′-yl]methyl]pyrazol-1-yl]-2-methyl-propanamide] | < 100
32 | CCc1cc2c(s1)CCO[C@@]21CCN(C2COCC2O)[C@@H](C)C1 (stereo partly drawn) [Compound 232, 4-[(2′S,4R)-2-ethyl-2′-methyl-spiro[6,7-dihydrothieno[3,2-c]pyran-4,4′-piperidine]-1′-yl]tetrahydrofuran-3-ol] | < 100
33 | CCc1cc2c(s1)CCO[C@@]21CCN(Cc2cn(Cc3cnn(C)c3C)nn2)[C@@H](C)C1 [Compound 44] | < 100
34 | CCc1cc2c(s1)CCO[C@@]21CCN(Cc2cn(CC3(C4CCOCC4)CC3)nn2)[C@@H](C)C1 [Compound 105] | 500 to 1000
35 | C[C@H]1C[C@@]2(CCN1Cc1cnn(CCS(C)(=O)=O)c1)OCC(O)(C(F)(F)F)c1cc(Cl)sc12 (stereo partly drawn) [Compound 852, (2′S,7R)-2-chloro-2′-methyl-1′-[[1-(2-methylsulfonylethyl)pyrazol-4-yl]methyl]-4-(trifluoromethyl)spiro[5H-thieno[2,3-c]pyran-7,4′-piperidine]-4-ol] | < 100
36 | C[C@H]1C[C@@]2(CCN1Cc1cnn(CC3CCOCC3)c1)OCCc1c2sc(Cl)c1CO [Compound 761] | 100 to 500
37 | CC(C)CN1CC[C@]2(C[C@@H]1C)OCCc1cc(CC(F)F)sc12 [Compound 581] | 100 to 500
38 | CCc1cc2c(s1)CCOC21CCN(Cc2cn(CC(C)(C)S(C)(=O)=O)nn2)CC1 [Compound 1081] | 100 to 500
39 | CCc1cc2c(s1)CCO[C@@]21CCN(Cc2cnn(CC(C)(CO)CO)c2)[C@@H](C)C1 [Compound 266] | < 100
40 | CCc1cc2c(s1)CCO[C@@]21CCN(C[C@H]2C[C@@H](NC(=O)CO)C2)[C@@H](C)C1 [Compound 351] | 100 to 500
41 | CCc1cc2c(s1)CCO[C@@]21CCN(Cc2cnn(C)c2)[C@@H](C)C1 [Compound 267] | < 100
42 | CCc1cc2c(s1)CCO[C@@]21CCN(Cc2cnc(N[C@@H](CO)[C@@H](C)O)nc2)[C@@H](C)C1 [Compound 229] | < 100
43 | CCc1cc2c(s1)CCO[C@@]21CCN(CCn2cccn2)[C@@H](C)C1 [Compound 286] | 500 to 1000
44 | COc1ccc(CN2CC[C@]3(C[C@@H]2C)OCCc2cc(Cl)sc23)cn1 [Compound 662] | < 100
45 | CCc1cc2c(s1)CCOC21CCN(Cc2cn(C(C)C(=O)NCC(C)O)nn2)CC1 (stereo not shown) [Compound 1119] | 500 to 1000
46 | Cc1cc2c(s1)CCO[C@@]21CCN(C2CCCC2O)[C@@H](C)C1 (stereo partly shown) [Compound 504] | 100 to 500
47 | CCc1cc2c(s1)CCO[C@@]21CCN(C[C@H]2C[C@@H](NC(=O)C(C)(O)C(F)(F)F)C2)[C@@H](C)C1 (stereo partly shown) [Compound 370] | 100 to 500
48 | CCc1cc2c(s1)CCO[C@@]21CCN(C[C@H]2C[C@@H](NC(=O)Cc3cc(C)cc(F)c3)C2)[C@@H](C)C1 [Compound 313] | < 100
49 | CCc1cc2c(s1)CCO[C@@]21CCN(C[C@@H](C)O)[C@@H](C)C1 [Compound 237] | 100 to 500
50 | CCc1cc2c(s1)CCO[C@@]21CCN(CC2CN(C(=O)CO)C2)[C@@H](C)C1 [Compound 452] | 100 to 500
51 | Cc1cnccc1CN1CC[C@]2(C[C@@H]1C)OCCc1cc(Cl)sc12 [Compound 693] | 500 to 1000
52 | Cc1sc2c(c1C)[C@]1(CCN(Cc3cn(CCS(C)(=O)=O)nn3)[C@@H](C)C1)OCC2 [Compound 512] | 100 to 500
53 | C[C@H]1C[C@@]2(CCN1C[C@@H](O)C(N)=O)OCCc1cc(CC(F)F)sc12 [Compound 610, (2R)-3-[(2′S, 7R)-2-(2,2-difluoroethyl)-2′-methyl-spiro[4,5-dihydrothieno[2,3-c]pyran-7,4′-piperidine]-1′-yl]-2-hydroxy-propanamide] | < 100
54 | C[C@H]1C[C@@]2(CCN1Cc1cccnc1)OCCc1c2sc(Cl)c1CO [Compound 757] | < 100
55 | C[C@H]1C[C@@]2(CCN1Cc1cnn(CC3(O)CCS(=O)(=O)CC3)c1)OC[C@@H](O)c1cc(C(F)(F)F)sc12 [Compound 974] | < 100
